The text below walks through data of patent US20120269834A1, “IMMUNOGLOBULIN CLEAVAGE FRAGMENT VACCINE COMPOSITIONS” (priority 2010, published 2012).

For assay [1], the target named is Fab fragment of the 2095-2 antibody. To be noted: 25° C; for kd / ka: 1:1 (Langmuir) model; for ka: global fit of three Fab surface densities; for Kd: calculated KD. On the procedure:
The specificity of binding was further examined using a Fab fragment of the 2095-2 antibody using a surface plasmon resonance platform (Biacore). Briefly, the Fab was immobilized to a CM5 sensor chip in a Biacore 2000 at three different surface densities (8500, 1650, and 350 RU) using standard NHS/EDC coupling. The running buffer contained 10 mM HEPES pH 7.4, 150 mM NaCl, and 0.01% Tween-20. Data were collected at 25° C.
Three N-terminally biotinylated peptides were tested for binding of to the immobilized Fab: WT, representing the expected sequence of a peptide fragment from a human IgG1 cleavage site after cleavage by the Streptococcus pyogenes IdeS protease; E233A, representing a variant of having a single alanine substitution at the amino acid residue four positions upstream of the C-terminus; and L234A, a variant having a single alanine substitution at the amino acid residue three positions upstream from the C-terminus. The peptides were modified by substituting serine for cysteine to make them compatible with the coupling chemistry and preserve the monomeric structure.
Peptides Wild type and E233A were tested in a 3-fold dilution series using 588 nM and 2.9 uM as the highest concentration, respectively. Peptide L234A was tested at 14.7 uM as the highest concentration in a 2-fold dilution series. Each peptide concentration series was tested in triplicate over the three different density Fab surfaces. The association and dissociation were monitored for 1 minute. Surfaces were regenerated with a 12 second injection of 1/500 dilution of phosphoric acid.

Assay [2] deals with cleavage site specific analogueue peptide. Nature of the assay: ELISA titers to the peptide analogueue after immunization of rabbits. The class given is in vivo, rabbit. To be noted: reciprocal of the dilution at which a signal was detectable, individual immunized rabbits. The source says:
The procedure described in Example 3 verified that test subject rabbits have had previously developed immune titers to Staph. aureus antigens which would provide for natural bacterial targeting antibodies. To determine if rabbits would generated a sufficiently specific and robust cleavage site specific antibody response after vaccination, with cleavage site peptides, to protect against a bacterial challenge, the following experiment was perfomed where rabbits were immunized with a GluV8-cleavage site peptide analogueue (residues 7-15 of SEQ ID NO: 1, […]) conjugated to the immunogen KLH.
Following immunization, the reactivity of rabbit serum to the peptide analogueue was tested by ELISA. […] Cleavage site specific antibodies were also detected in the wiffle ball fluids of all six rabbits, with the same animal (657) having a low level of detectible antibodies.
Background: An ELISA detects its analyte on a solid surface through an enzyme-linked reagent.

The subject of another assay is S. aureus (ATCC 29213). The experiment in a line: wiffle ball (tissue cage) S. aureus infection model in rabbits. The class given is in vivo. The text has this: In order to test the capacity of cleavage site specific antibodies to rescue cleaved IgGs in vivo, a model for bacterial infection employing a “tissue cage” (Fernandez J A, et. al. (1997) Antimicrob. Agents Chemother. 43(3):667-671) was adopted. In this system, a wiffle ball is surgically implanted subcutaneously in the dorsal cervical area. The model allows the infectious agents to be localized within an easily accessible fluid compartment, a tissue pouch, and has been used to assess the efficacy of antibiotics against bacteria.
In the final phase of the study, the immunized and non-immunized rabbits were inoculated with 6.2 log10 colony forming units (CFUs) of S. aureus (ATCC 29213) directly into the wiffle-ball compartments.
The bacterial counts and test subject viability were monitored over the course of two weeks for bacterial counts and survival. The data shown in FIG. 9 indicate that during the first week of the study, the average bacterial counts for control animals were several logs higher than cleavage site specific vaccinated animals. For example, on day 2 the control had 7.2 log10 CFU/ml wiffle ball fluid while the immunized group had 5.2 log10 CFU/ml wiffle ball fluid.

The target of a further assay is human IgG1 (Homo sapiens, UniProt P01857). Nature of the assay: action of human and bacterial proteases on human IgG1 (Table 1). The class given is biochemical. To be noted: for Major Product: None = no detectable cleavage in 24 hours; for Cleaved Site: human IgG1 heavy chain, EU numbering. As to the method:
Table 1 is a summary of the findings concerning the action of human proteases and two bacterial proteases on human IgG1. The term “Coagulation proteinases” refers to serum coagulation cascade proteins including; FXIIa, FIXa, FXa, thrombin and activated protein C; plasmin was plasminogen co-incubated with plasminogen activators; tPA, streptokinase and staphylokinase; “plasminogen activators alone” are without plasminogen; and the MMPs were recombinant proteinases obtained either as the active form or the pro-enzyme as detailed in the Materials; and “None” denotes no detectable cleavage in 24 hours. Except where indicated all enzymes where human. The residue designations are for the EU numbering system for the IgG1 antibody heavy chain where the 25 residues of SEQ ID NO: 1 corresponds to residues 219 through 243 of the complete mature heavy chain.

The next assay deals with platelets. The experiment in a line: circulating platelet counts in dogs. The class given is in vivo, dog. As to the method:
First, the c7E3 antibody antigen binding and platelet depletion parameters were established in dogs.
c7E3 IgG and c7E3 IgG single-cleaved by IdeS protease were also compared in vivo. Three groups of 5 animals received either saline control, intact c7E3 IgG (0.05 mg/kg) or c7E3 single-cleaved IgG (0.05 mg/kg). Platelet counts were monitored at baseline and at 2, 24, 48, 72 and 96 hours post-administration. Limiting the study to 5 days minimized the likelihood of anti-c7E3 immune responses that might confound the interpretation of the results. The results are presented in FIG. 3 as the mean platelet count±SD for each animal group at each time point. The extent of the error bars connotes the normal variability of platelet counts in different animals (for example, the predose counts for the 5 animals in the single-cleaved IgG treatment group were 175,000, 355,000, 305,000, 276,000 and 334,000 per μL, respectively).
To be consistent with the prior experiments, the variants of c7E3 were all administered at the 0.05 mg/kg dose. The unique aspect of the experiment (groups 6 and 7) involves the infusion of the first targeting mAb followed by the cleavage site specific mAb after a 10 minute delay. […] Platelet counts were monitored over a 96-hour period. […]

Assay [3] has as its system platelet surface IIb/III3 receptors. The experiment in a line: platelet aggregation assay. The class given is cell-based. To be noted: 5 μM ADP; compared with intact c7E3 IgG. As to the method:
c7E3 inhibits platelet aggregation by binding to platelet surface IIb/III3 receptors—thereby blocking the ability of fibrinogen to bind to the receptors on activated platelets and to clump them together. The respective inhibitory profiles of intact and single-cleaved c7E3 IgG were tested in a platelet aggregation assay. Platelet aggregation is measured as an increase of light transmission through a platelet suspension after activation with a physiological agonist. The inhibition is compared to control aggregation to 5 μM adenosine diphosphate (ADP). The percent inhibition was calculated as: control aggregation—test aggregation X 100%, divided by control aggregation.

Where “and” joins values, the source holds several entries; their conditions need not be identical. Identical values can stand only once. Ends that are not written are not given here. * marks the point of attachment. Biotin = O=C1N[C@H]2[C@H](CS[C@H]2CCCCC(=O)*)N1

Chain of human IgG1 (P01857 1-330 isoform P01857-1, other chains not shown): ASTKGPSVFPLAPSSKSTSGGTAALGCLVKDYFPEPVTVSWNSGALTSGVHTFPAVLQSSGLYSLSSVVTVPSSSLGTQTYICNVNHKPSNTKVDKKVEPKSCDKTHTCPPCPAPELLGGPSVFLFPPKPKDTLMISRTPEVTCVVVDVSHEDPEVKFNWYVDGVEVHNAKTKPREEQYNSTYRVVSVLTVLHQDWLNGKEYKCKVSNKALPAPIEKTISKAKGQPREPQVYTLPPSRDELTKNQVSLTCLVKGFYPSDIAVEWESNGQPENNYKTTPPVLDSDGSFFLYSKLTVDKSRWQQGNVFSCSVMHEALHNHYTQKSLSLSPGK

As for Biotin-TSPPSPAPALLG [E233A], in assay [1], the kd stood at 0.1070 ± 0.04 s⁻¹, the ka is 7.29 ± 0.03 M-1s-1 × 10^−5 and the Kd (commonly the constant that tells how readily two partners part at equilibrium) was 147 nM.
The like results for Biotin-TSPPSPAPEALG [L234A] were, in that order, 1.03 ± 0.01 s⁻¹, 1.24 ± 0.01 M-1s-1 × 10^−5 and 8340 nM.
In the same order, the values of Biotin-TSPPSPAPELLG [Wt] are 0.00443 ± 0.02 s⁻¹, 5.22 ± 0.04 M-1s-1 × 10^−5 and 8.5 nM.
Regarding “C-T-S-P-P-S-P-S-P-A-P-E (CTSPPSPSPAPE; also: conjugated to KLH) [Glutamyl endopeptidase cleavage site analogueue peptide conjugated to keyhole limpet hemocyanin, used to vaccinate rabbits]”, the “Serum (titer)” value in assay [2] is 640 and 12,800 and 51,000 and 820,000 and 205,000. Further, the “Wiffle ball (titer)” value in assay [2] (wiffle ball fluid) is 3,200 and 12,800 (3×) and 51,000 and 320. Further, the average bacterial counts with S. aureus (ATCC 29213) (day 2, immunized rabbits inoculated with 6.2 log10 CFUs) is 5.2 log10 CFU/ml wiffle ball fluid. The substance further returned an animals viable in the assay on S. aureus (ATCC 29213) (end of the two week study) of 100%.
On to Cathepsin D: human protease, for which, in the assay with human IgG1, the “Major Product” value is “None”.
For the substance Cathepsin G: human serine endopeptidase, in the assay with human IgG1, the “Major Product” value was “F(ab′)2 +” and the “Cleaved Site” value is reported as “Glu^233-”.
With “Collagenase 2 (MMP-8): recombinant human MMP”, in the assay with human IgG1, the “Major Product” value was “None”.
Consider “Glutamyl endopeptidase I (Glu V8 protease): glutamyl endopeptidase I from Staph. aureus”, for which, in the assay with human IgG1, the “Major Product” value is reported as “F(ab′)2 +” and the “Cleaved Site” value is “Glu^233-”.
“Interstitial collagenase (MMP-1): recombinant human MMP”: the “Major Product” value in the assay with human IgG1 is “None”.
“Matrilysin (MMP-7): recombinant human MMP”: in the assay with human IgG1, the “Major Product” value is “F(ab′)2 +” and the “Cleaved Site” value is reported as “Leu^234-”.
Consider “Neutrophil elastase: human serine endopeptidase”, for which, in the assay with human IgG1, the “Major Product” value is on record as “Fab + Fc” and the “Cleaved Site” value is “Thr^223-”.
Take “Stromelysin (MMP-3): recombinant human MMP”: in the assay with human IgG1, the “Major Product” value is on record as “F(ab′)2 +” and the “Cleaved Site” value is “Pro^232-”.
In the case of “c7E3 single-cleaved IgG: c7E3 IgG single-cleaved in the lower hinge by IdeS protease”, the “effect on platelet numbers” value in the assay with platelets (0.05 mg/kg, groups of 5 animals, monitored to 96 hours) is on record as “essentially without effect”; in the assay with platelets (FIG. 12 study, groups of 3 animals, c7E3 variants 0.05 mg/kg, 2095-2 0.5 mg/kg), “without effect”. For the same substance, the “binding/inhibition of platelet aggregation after single lower hinge cleavage by IdeS” value in assay [3] is “no loss of binding/inhibition”.
